# Values of other authors in PMC9370779, “Traditional Medicinal Uses, Phytochemistry, Biological Properties, and Health Applications of Vitex sp” (Plants, 2022).
# Entries after “also recorded” stand apart in the source; their conditions may differ. Read-outs that look alike come from different tables or passages of the source.
# Legend:
# [1] = tested on: human colorectal carcinoma (HCT-116) cells; set-up: method as in PMID 26034885
# [2] = tested on: human fetal lung fibroblast (MRC15) cells; set-up: method as in PMID 26034885
# [3] = set-up: method as in PMID 26034885
# [4] = set-up: method as in doi:10.1016/j.phytol.2019.11.018
# [5] = read-out: antioxidant effects, IC50 value
# [6] = tested on: α-glucosidase
# [7] = set-up: method as in PMID 23150078; conditions: 100 mg/kg dose
# [8] = tested on: lymphocytic leukemia (P388) cells; set-up: method as in PMID 9332026
# [9] = set-up: method as in PMID 27118321; conditions: ABTS stated for 131
# [10] = tested on: nuclear factor-kappa B (NF-κB) pathway in human embryonic kidney (HEK 293) cells; set-up: method as in PMID 29996686; conditions: TNF-α-induced
# [11] = set-up: method as in PMID 29343985; conditions: mice, acetic acid abdomen constriction
# [12] = set-up: method as in PMID 29343985; conditions: mice, carrageenan paw oedema
# [13] = tested on: LPS-induced NO production; set-up: method as in doi:10.1177/1934578X19848178; conditions: at lower doses/concentrations
# [14] = tested on: cyclooxygenase-1 (COX-1); set-up: method as in PMID 11842334
# [15] = biological target: cyclooxygenase-2 (COX-2)
# [16] = tested on: African green monkey kidney (Vero) cell lines; set-up: method as in PMID 11842334
# [17] = tested on: LPS-stimulated NO production
# [18] = tested on: hepatocyte-derived carcinoma (HuH-7) cells; set-up: method as in PMID 18595136
# [19] = not given; remark: listed apart in the source
smiles,measurement,setting,value
"C=C(CC(=O)O)C(=O)C[C@H]1C(=C)CC[C@H]2C(C)(C)CCC[C@]12C [Compound 76, vitexolin B]",cytotoxic activity against HCT-116 cells,[1],cytotoxic activities; also recorded: cytotoxic activity
same,cytotoxic activity against MRC15 cells,[2],cytotoxic activities; also recorded: cytotoxic activity
same,antibacterial activity,[3],moderate antibacterial
"COC1CC2C(O)C=C(COC(=O)c3ccc(O)cc3)C2C(OC)O1 (stereo not shown) [Compound 23, ishindacin A]",percentage scavenging activities on stable free radicals,[4],27.14%
"C=C1CC[C@@H]2C(C(=O)O)=CO[C@@H](O[C@@H]3O[C@H](COC(=O)c4ccc(O)cc4)[C@@H](O)[C@H](O)[C@H]3O)[C@H]12 [Compound 19, vitexnegheteroin K]",IC50,[5],> 20 µM
same,inhibitory effects on α-glucosidase,[6],moderate inhibitory effects
"C[C@@H]1CC[C@@H]2C(C(=O)O)=CO[C@@H](O[C@@H]3O[C@H](COC(=O)c4ccc(O)cc4)[C@@H](O)[C@H](O)[C@H]3O)[C@H]12 [Compound 20, vitexnegheteroin L]",IC50,[5],> 20 µM
same,inhibitory effects on α-glucosidase,[6],moderate inhibitory effects
"CC1(C)CC[C@@H]([C@@](O)(CO)C2CC[C@@]3(O)C4=CC(=O)[C@@H]5C[C@@H](O)[C@@H](O)C[C@]5(C)C4CC[C@]23C)O1 (stereo partly shown) [Compound 111, 21-hydroxyshidasterone]",anti-inflammatory activity in rat paw oedema development assay,[7],showed anti-inflammatory activity; also recorded: Exhibited anti-inflammatory activity in rat paw oedema development assay at 100 mg/kg dose
"COC1C(COC(=O)C=Cc2ccc(O)c(O)c2)OC(c2c(O)cc3oc(-c4ccc(O)c(O)c4)cc(=O)c3c2O)C(O)C1O (stereo not drawn) [Compound 115, luteolin 6-C-(4″-methyl-6″-O-trans-caffeoylglucoside)]","cytotoxicity against P388 cells, IC50 values",[8],7.6 µg/mL
"COc1cc(-c2c(O)c(C(=O)O)cc3cc(OC)c(O)cc23)ccc1O [Compound 131, vitexnegheteroin G]",antioxidant activity,[9],antioxidant activity; also recorded: Exhibited antioxidant activities using ABTS scavenging activities
"CC(=O)OC1CC(C)C(O)(CCC2=CC(=O)OC2)C2(C)CCCC(C)(C)C12 (stereo not shown) [Compound 95, vitexilactone D]",inhibition rates of NF-κB activation,[10],57.30 ± 15.70
COC(=O)c1cccc(CCc2cc(=O)c3c(O)c(OC)ccc3o2)c1 [Compound 160],antinociceptive action,[11],"successful in reducing nociception and inflammation; also recorded: The derivatives from V. negundo L. were able to reduce inflammation, and nociception, and could be used as a potential source of antinociceptive and anti-inflammatory candidates"
same,anti-inflammatory activity,[12],"successful in reducing nociception and inflammation; also recorded: The derivatives from V. negundo L. were able to reduce inflammation, and nociception, and could be used as a potential source of antinociceptive and anti-inflammatory candidates"
"COc1ccc([C@H]2c3c(ccc(O)c3OC)C=C(C=O)[C@@H]2CO)cc1OC [Compound 138, 6-hydroxy-4-(3,4-dimethoxyphenyl)-3-hydroxymethyl-5-methoxy-3,4-dihydro-2-napthaldehyde]",inhibitory effects on NO generation,[13],minor effects of inhibitory
COc1ccc2oc(CC(O)c3cccc(C(=O)O)c3)cc(=O)c2c1O (stereo not shown) [Compound 161],antinociceptive action,[11],"successful in reducing nociception and inflammation; also recorded: The derivatives from V. negundo L. were able to reduce inflammation, and nociception, and could be used as a potential source of antinociceptive and anti-inflammatory candidates"
same,anti-inflammatory activity,[12],"successful in reducing nociception and inflammation; also recorded: The derivatives from V. negundo L. were able to reduce inflammation, and nociception, and could be used as a potential source of antinociceptive and anti-inflammatory candidates"
"O=C(C=Cc1ccc(O)c(O)c1)OCC1OC(c2c(O)cc3oc(-c4ccc(O)c(O)c4)cc(=O)c3c2O)C(O)C(O)C1O (stereo not drawn) [Compound 116, luteolin 6-C-(6″-O-trans-caffeoylglucoside)]","cytotoxicity against P388 cells, IC50 values",[8],14 µg/mL
"COc1cc(C(=O)OC2C[C@@H](O)[C@@H]3C=CO[C@@H](C[C@@H]4O[C@H](CO)[C@@H](O)[C@H](O)[C@H]4O)[C@H]23)ccc1O (stereo partly shown) [Compound 7, pedunculariside]",COX-1 inhibition (in words),[14],low
same,COX-1 inhibition (in words),[14]; listed as pedunculariside,little inhibitory effect
same,"IC50 value, inhibition of COX-2",[15],150 ± 210 µg/mL
same,inhibition of COX-2 (in words),[15],preferential inhibition of COX-2
same,cytotoxicity against Vero cell lines,[16],no cytotoxicity
"COc1cc2c(cc1O)C(c1ccc(OC)c(OC)c1)C(CO)C(C=O)=C2 (stereo not shown) [Compound 137, 6-hydroxy-4-(3,4-dimethoxyphenyl)-3-hydroxymethyl-7-methoxy-3,4-dihydro-2-naphthaldehyde]",inhibitory effects on NO generation,[13],minor effects of inhibitory
"CO[C@H]1C[C@@H]2[C@@H](C(COC(=O)c3ccc(O)cc3)=C[C@H]2O)[C@H](OC)O1 [Compound 24, isonishindacin A]",percentage scavenging activities on stable free radicals,[4],25.80%
"C=C1CCC2C(C)(C)CCCC2(C)C1CC(O)C1=CC(=O)OC1 (stereo not shown) [Compound 74, vitexolide E]",cytotoxic activity against HCT-116 cells,[1],cytotoxic activities; also recorded: cytotoxic activity
same,cytotoxic activity against MRC15 cells,[2],cytotoxic activities; also recorded: cytotoxic activity
same,antibacterial activity,[3],moderate antibacterial
"O=C(C=Cc1ccc(O)c(O)c1)OC1C(c2c(O)cc3oc(-c4ccc(O)c(O)c4)cc(=O)c3c2O)OC(CO)C(O)C1O (stereo not drawn) [Compound 117, luteolin 6-C-(2″-O-trans-caffeoylglucoside)]","cytotoxicity against P388 cells, IC50 values",[8],56 µg/mL
"CO[C@H]1O[C@H](COC(=O)c2ccc(O)cc2)[C@@H](O)[C@H](O)[C@H]1O [Compound 155, methyl (6-O-4-hydroxybenzoyl)-α-D-glucopyranoside]",antioxidant activity via ABTS radical scavenging assay,,Exhibited antioxidant and NO inhibitory activities.
same,inhibitory activity on LPS-stimulated NO production,[17],Exhibited antioxidant and NO inhibitory activities.
"C[C@]1(O)CC[C@@H]2C(C(=O)O)=CO[C@@H](O[C@@H]3O[C@H](CO)[C@@H](O)[C@H](O)[C@H]3OC(=O)c3ccc(O)cc3)[C@@H]21 [Compound 1, 2-p-hydroxybenzoyl mussaenosidic acid]",protective effects against CCl4-induced toxicity in HuH-7 cells and oxidative stress,[18],Showed protective effects against CCl4-induced toxicity in HuH-7 cells and oxidative stress
"C=C1CCC2C(C)(C)CCCC2(C)C1CC(O)C1=CC(=O)OC1O (stereo not shown) [Compound 71, 12-epivitexolide A]",cytotoxic activity against HCT-116 cells,[1],cytotoxic activities; also recorded: cytotoxic activity
same,cytotoxic activity against MRC15 cells,[2],cytotoxic activities; also recorded: cytotoxic activity
same,antibacterial activity,[3],moderate antibacterial
"CCOC1C=C(CCC2(O)C(C)CC(OC(C)=O)C3C(C)(C)CCCC32C)C(=O)O1 (stereo not shown) [Compound 94, viterotulin C]",inhibition rates of NF-κB activation,[10],66.09 ± 11.49
"CO[C@H]1CC2C(C=O)=C(C)CC2O1 (stereo partly shown) [Compound 6, Tarumal]",COX-1 inhibition (in words),[14],low inhibition
same,cytotoxicity against Vero cell lines,[16],no cytotoxicity
"O=C(OC[C@H]1O[C@@H](OC(=O)c2ccc(O)cc2)[C@H](O)[C@@H](O)[C@@H]1O)c1ccc(O)cc1 [Compound 157, 1,6-di-O-4-hydroxybenzoyl-β-D-glucopyranoside]",antioxidant activity via ABTS radical scavenging assay,,Exhibited antioxidant and NO inhibitory activities.
same,inhibitory activity on LPS-stimulated NO production,[17],Exhibited antioxidant and NO inhibitory activities.
CC(C(=O)O)c1ccc(-c2ccccc2)c(F)c1 (stereo not shown) [flurbiprofen],symptoms of mastalgia,"[19]; cyclic mastalgia, premenopausal women, V. agnus-castus fruit 40 mg",significant reduction
same,harmful effects,[19]; in vivo,no harmful effects
"CC1(C)CC[C@@H]([C@@H](CO)C2CC[C@@]3(O)C4=CC(=O)[C@@H]5C[C@@H](O)[C@@H](O)C[C@]5(C)C4CC[C@]23C)O1 (stereo partly drawn) [Compound 112, 11β-hydroxy-20-deoxyshidasterone]",anti-inflammatory activity in rat paw oedema development assay,[7],showed anti-inflammatory activity; also recorded: Exhibited anti-inflammatory activity in rat paw oedema development assay at 100 mg/kg dose
